Data set [1] can be described thus: Cell penetration or infiltration of the polypeptides. The format is cell-based. From the text:
In this example, the sequence was modified based on SEQ ID NO.: 1. Some preferred modification based on the tested results included: adding a disulfide linkage within the peptide, or adding a cell-penetrating element.

The nature of data set [2]: Stability in plasma (percentage of residual peptides). The note with it: for Stability* (>24 h): plasma.
Description: For the YAP inhibitory polypeptides modified in above (a) and (b), the IC50 values for TEAD binding and the stability in plasma were measured.
Data set [3] concerns hepatoma cell line HCCLM3. The format is cell-based. The method, then:
(§1) The hepatoma cell line BEL7404 (purchased from The Chinese Academy of Sciences cell bank) was a cell line with high expression of YAP protein; HCCLM3 (purchased from The Chinese Academy of Sciences cell bank) was a cell line with low expression of YAP protein. The hepatoma cell lines (BEL7404 or HCCLM3) were inoculated into a 96-well plate at the concentration of 2000 cells/well, and incubated overnight in RPMI1640 containing 1% bovine serum at 37° C. The hepatoma cell lines were treated with polypeptides having different concentrations at 37° C. for 72 h.
(§2) Moreover, IC50 values of the cells in 1.1 were determined using CCK-8 kit.
(§3) The polypeptide represented by SEQ ID NO.:1 was further modified. The IC50 values of the polypeptides at a concentration of 1% in cell cultivating for 72 h were measured.

The test system of data set [4] is hepatoma cell line BEL7404. The format is cell-based. The method, then:
as §1, §2, §3

The mark [5] stands for this setting: Table 2, percentage of residual peptides after >24 h.
Setting [6] is: Table 8, at a concentration of 1% in cell cultivating for 72 h, unit inferred, read-out: IC50 HCCLM3.
Setting [7] is: Table 8, at a concentration of 1% in cell cultivating for 72 h, unit inferred, read-out: IC50 BEL7404.

From patent US10526385B2, “YAP protein inhibiting polypeptide and application thereof” (BAO KANG BIOMEDICAL HEALTHCARE INC, priority 2013, dated 2020) come the findings set out here.

Like-named read-outs stand apart in the source and are kept apart here. Where a SMILES comes first, the peptide text is derived from it. Bridges are numbered along the chain shown (N, C = ends). [ ]: non-standard residue; d: D form. Phe(3-Cl) = N[C@@H](Cc1cccc(Cl)c1)C(=O)O; hCys = N[C@@H](CCS)C(=O)O; Nle = CCCC[C@H](N)C(=O)O

Consider `CSCC[C@H](NC(=O)[C@@H]1CCCN1C(=O)[C@@H](N)C(C)C)C(=O)N[C@H]1CCSSC[C@@H](C(=O)N[C@@H](CCCCN)C(=O)N2CCC[C@H]2C(=O)N2CCC[C@H]2C(=O)N[C@@H](CCC(=O)O)C(=O)O)NC(=O)[C@H](Cc2ccccc2)NC(=O)[C@H](CO)NC(=O)[C@H](CC(=O)O)NC(=O)[C@@H]2CCCN2C(=O)[C@H](CC(C)C)NC(=O)[C@H](CCCCN)NC(=O)[C@H](CCCNC(=N)N)NC(=O)[C@H](CC(C)C)NC1=O` [Peptide 2], for which, in data set [1] (Table 2, penetration of the peptide with RRMKWKK taken as 100%), the “Percentage of Cell penetration or infiltration (%)” value came out at 8%. The “Stability* (>24 h)” value in data set [2] (setting [5]) amounted to 13%; in data set [2] (Table 3, >24 h) it was 7%.

For the compound `CSCC[C@H](NC(=O)[C@@H]1CCCN1C(=O)[C@@H](N)C(C)C)C(=O)N[C@@H](CCCNC(=N)N)C(=O)N[C@@H](CC(C)C)C(=O)N[C@@H](CCCNC(=N)N)C(=O)N[C@@H](CCCCN)C(=O)N[C@@H](CC(C)C)C(=O)N1CCC[C@H]1C(=O)N[C@@H](CC(=O)O)C(=O)N[C@@H](CO)C(=O)N[C@@H](Cc1ccccc1)C(=O)N[C@@H](Cc1ccccc1)C(=O)N[C@@H](CCCCN)C(=O)N1CCC[C@H]1C(=O)N1CCC[C@H]1C(=O)N[C@@H](CCC(=O)O)C(=O)O` [SEQ ID NO.: 1], in data set [1], the “Percentage of Cell penetration or infiltration (%)” value is listed as below 10% and the uptake by cells result is on record as “difficult for effective uptake by cells”. Moreover, the “Stability* (>24 h)” value in data set [2] (setting [5]) came to 0%. The stability result in data set [2] (in words) was “low stability”.

What is called IC50 is the midpoint of a concentration-inhibition curve. For `CSCC[C@H](NC(=O)[C@H](CCCNC(=N)N)NC(=O)[C@@H](N)CCCNC(=N)N)C(=O)N[C@@H](CCCCN)C(=O)N[C@@H](Cc1c[nH]c2ccccc12)C(=O)N[C@@H](CCCCN)C(=O)N[C@@H](CCCCN)C(=O)N1CCC[C@H]1C(=O)N[C@H](C(=O)NCC(=O)N[C@H](C(=O)N[C@H](C(=O)N[C@@H](CO)C(=O)NCC(=O)N1CCC[C@H]1C(=O)N[C@@H](C)C(=O)N[C@@H](C)C(=O)N[C@H](C(=O)N1CCC[C@H]1C(=O)N[C@H](C(=O)N[C@@H](C)C(=O)N[C@@H](CCC(N)=O)C(=O)N[C@@H](Cc1c[nH]cn1)C(=O)O)[C@@H](C)O)[C@@H](C)O)C(C)C)C(C)C)[C@@H](C)O` [SEQ ID NO.: 19], the IC50 was above 1000 µM in data set [3] (72 h) and 763 ± 31.5 µM in data set [4] (72 h).

As to `CC[C@H](C)[C@H](NC(=O)[C@H](CCCCN)NC(=O)[C@H](CCCCN)NC(=O)[C@H](Cc1c[nH]c2ccccc12)NC(=O)[C@H](CCCCN)NC(=O)[C@H](CCSC)NC(=O)[C@H](CCCNC(=N)N)NC(=O)[C@@H](N)CCCNC(=N)N)C(=O)N[C@H](C(=O)N[C@@H](Cc1c[nH]cn1)C(=O)N[C@H](C(=O)N[C@@H](CCCNC(=N)N)C(=O)NCC(=O)N[C@@H](CC(=O)O)C(=O)N[C@@H](CO)C(=O)N[C@@H](CCC(=O)O)C(=O)N[C@H](C(=O)N[C@@H](CC(=O)O)C(=O)N[C@@H](CC(C)C)C(=O)N[C@@H](CCC(=O)O)C(=O)N[C@@H](C)C(=O)N[C@@H](CC(C)C)C(=O)N[C@@H](Cc1ccccc1)C(=O)O)[C@@H](C)O)C(C)C)C(C)C` [SEQ ID NO.: 17], the IC50 in data set [3] (72 h) is above 1000 µM; in data set [4] (72 h) it was 211 ± 44.2 µM.

Take `CCCC[C@@H]1NC(=O)[C@H](CCCCN)NC(=O)[C@H](CCCNC(=N)N)NC(=O)[C@H](CC(C)C)NC(=O)[C@@H](NC(=O)[C@H](Cc2cccc(Cl)c2)NC(=O)[C@@H]2CCCN2C(=O)[C@@H](N)C(C)C)CCSSC[C@@H](C(=O)N[C@@H](CCCCN)C(=O)N2CCC[C@H]2C(=O)N2CCC[C@H]2C(=O)N[C@@H](CCCNC(=N)N)C(=O)N[C@@H](CCCNC(=N)N)C(=O)N[C@@H](CCSC)C(=O)N[C@@H](CCCCN)C(=O)N[C@@H](Cc2c[nH]c3ccccc23)C(=O)N[C@@H](CCCCN)C(=O)N[C@@H](CCCCN)C(=O)O)NC(=O)[C@H](Cc2ccccc2)NC(=O)[C@H](CO)NC(=O)[C@H](C)NC(=O)[C@@H]2CCCN2C1=O` [compound 21] (H-VP[Phe(3-Cl)][hCys]LRK[Nle]PASFCKPPRRMKWKK-OH; disulfide 4-13): the IC50 in data set [3] (setting [6]) was 196 ± 16.3 µM; in data set [4] (setting [7]) it was 28.6 ± 2.9 µM.

Take `CSCC[C@H](NC(=O)[C@H](CCCNC(=N)N)NC(=O)[C@@H](N)CCCNC(=N)N)C(=O)N[C@@H](CCCCN)C(=O)N[C@@H](Cc1c[nH]c2ccccc12)C(=O)N[C@@H](CCCCN)C(=O)N[C@@H](CCCCN)C(=O)N[C@H](C(=O)N[C@@H](C)C(=O)NCC(=O)N[C@@H](C)C(=O)N[C@@H](CC(C)C)C(=O)N[C@H](C(=O)N1CCC[C@H]1C(=O)N[C@@H](CCC(N)=O)C(=O)N[C@@H](Cc1c[nH]cn1)C(=O)N[C@H](C(=O)N[C@@H](CCCNC(=N)N)C(=O)N[C@@H](C)C(=O)N[C@@H](Cc1c[nH]cn1)C(=O)N[C@@H](CO)C(=O)N[C@@H](CO)C(=O)N1CCC[C@H]1C(=O)O)C(C)C)[C@@H](C)O)[C@@H](C)O` [SEQ ID NO.: 18]: the values for the IC50 in data set [3] (72 h) and in data set [4] (72 h) were above 1000 µM and 816 ± 14.4 µM, respectively.

Consider `CCCC[C@@H]1NC(=O)[C@H](CCCCN)NC(=O)[C@H](CCCCN)NC(=O)[C@H](CC(C)C)NC(=O)[C@@H](NC(=O)[C@H](Cc2cccc(Cl)c2)NC(=O)[C@@H]2CCCN2C(=O)[C@@H](N)C(C)C)CCSSC[C@@H](C(=O)N[C@@H](CCCCN)C(=O)N2CCC[C@H]2C(=O)N2CCC[C@H]2C(=O)N[C@@H](CCCNC(=N)N)C(=O)N[C@@H](CCCNC(=N)N)C(=O)N[C@@H](CCSC)C(=O)N[C@@H](CCCCN)C(=O)N[C@@H](Cc2c[nH]c3ccccc23)C(=O)N[C@@H](CCCCN)C(=O)N[C@@H](CCCCN)C(=O)O)NC(=O)[C@H](Cc2ccccc2)NC(=O)[C@H](CO)NC(=O)[C@H](CCC(=O)O)NC(=O)[C@@H]2CCCN2C1=O` [compound 29] (H-VP[Phe(3-Cl)][hCys]LKK[Nle]PESFCKPPRRMKWKK-OH; disulfide 4-13), for which the IC50 in data set [3] (setting [6]) came out at 254 ± 12.3 µM; in data set [4] (setting [7]), 65.6 ± 8.9 µM.

For `CSCC[C@H](NC(=O)[C@H](CCC(=O)O)NC(=O)[C@H](Cc1c[nH]c2ccccc12)NC(=O)CNC(=O)[C@H](C)NC(=O)[C@@H]1CCCN1C(=O)[C@H](CCCCN)NC(=O)[C@H](CCCCN)NC(=O)[C@H](Cc1c[nH]c2ccccc12)NC(=O)[C@H](CCCCN)NC(=O)[C@H](CCSC)NC(=O)[C@H](CCCNC(=N)N)NC(=O)[C@@H](N)CCCNC(=N)N)C(=O)N[C@@H](C)C(=O)N[C@@H](CCCCN)C(=O)N[C@H](C(=O)N[C@@H](CO)C(=O)N[C@@H](CO)C(=O)NCC(=O)N[C@@H](CCC(N)=O)C(=O)N[C@@H](CCCNC(=N)N)C(=O)N[C@@H](Cc1ccc(O)cc1)C(=O)N[C@@H](Cc1ccccc1)C(=O)O)[C@@H](C)O` [SEQ ID NO.: 20], the IC50 is above 1000 µM in data set [3] (72 h) and 444 ± 46.5 µM in data set [4] (72 h).

Take `CCCC[C@@H]1NC(=O)[C@H](CCCCN)NC(=O)[C@H](CCCCN)NC(=O)[C@H](CC(C)C)NC(=O)[C@@H](NC(=O)[C@H](Cc2cccc(Cl)c2)NC(=O)[C@@H]2CCCN2C(=O)[C@@H](N)C(C)C)CSSCC[C@@H](C(=O)N[C@@H](CCCCN)C(=O)N2CCC[C@H]2C(=O)N2CCC[C@H]2C(=O)N[C@@H](CCCNC(=N)N)C(=O)N[C@@H](CCCNC(=N)N)C(=O)N[C@@H](CCSC)C(=O)N[C@@H](CCCCN)C(=O)N[C@@H](Cc2c[nH]c3ccccc23)C(=O)N[C@@H](CCCCN)C(=O)N[C@@H](CCCCN)C(=O)O)NC(=O)[C@H](Cc2ccccc2)NC(=O)[C@H](CO)NC(=O)[C@H](C)NC(=O)[C@@H]2CCCN2C1=O` [compound 30] (H-VP[Phe(3-Cl)]CLKK[Nle]PASF[hCys]KPPRRMKWKK-OH; disulfide 4-13): the IC50 in data set [3] (setting [6]) stood at 142 ± 9.4 µM; in data set [4] (setting [7]), 28.2 ± 1.8 µM.
